Results: patent US9309276B2, “Synthetic lipid A derivative” (University of Georgia Research Foundation, Inc., priority 2007, dated 2016)

Tests used:
MM6 cells = experiment: Cell viability of MM6 cells by trypan blue exclusion; type: cell-based, human; settings: 5.5 h treatment
human TLR2 = target: T1, human TLR2 (Homo sapiens, UniProt O60603); experiment: NF-κB activation in HEK 293T cells stably transfected with human TLR2; type: cell-based; settings: 103/104 at 0.1, 1 and 10 μg mL−1; Pam3CysSK4 1 μg mL−1; 4 h
T1 construct: host or cells: HEK 293T
T1 sequence (O60603 21-784): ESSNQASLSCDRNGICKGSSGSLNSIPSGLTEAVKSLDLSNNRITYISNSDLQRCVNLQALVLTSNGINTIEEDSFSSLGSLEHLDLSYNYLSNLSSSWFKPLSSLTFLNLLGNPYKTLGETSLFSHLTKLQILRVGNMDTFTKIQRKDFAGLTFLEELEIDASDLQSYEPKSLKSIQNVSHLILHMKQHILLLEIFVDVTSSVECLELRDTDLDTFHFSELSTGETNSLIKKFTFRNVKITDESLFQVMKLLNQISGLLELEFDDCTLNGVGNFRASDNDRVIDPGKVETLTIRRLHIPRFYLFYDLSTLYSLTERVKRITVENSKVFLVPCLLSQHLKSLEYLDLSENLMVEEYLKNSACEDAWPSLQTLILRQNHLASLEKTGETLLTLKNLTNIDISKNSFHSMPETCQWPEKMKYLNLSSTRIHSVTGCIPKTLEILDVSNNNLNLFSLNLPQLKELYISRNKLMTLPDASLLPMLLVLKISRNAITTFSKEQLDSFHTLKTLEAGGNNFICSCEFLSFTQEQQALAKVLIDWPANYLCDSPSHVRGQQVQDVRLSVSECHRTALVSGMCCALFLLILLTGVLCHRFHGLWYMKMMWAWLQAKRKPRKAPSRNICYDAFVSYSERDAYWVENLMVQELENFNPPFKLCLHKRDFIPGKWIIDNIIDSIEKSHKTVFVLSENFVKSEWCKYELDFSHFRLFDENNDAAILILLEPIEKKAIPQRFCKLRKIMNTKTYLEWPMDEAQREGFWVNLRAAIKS
Experimental: Induction of NF-κB activation was determined in triplicate cultures of HEK 293T cells stably transfected with human or mouse (a) TLR4/MD2/CD14 and (b) TLR2 and transiently transfected with pELAM-Luc and pRL-TK plasmids. Forty-four h post-transfection, cells were treated with (B) E. coli LPS (10 ng mL^−1), (C) Pam3CysSK4 (1 μg mL^−1), (D, E and F) 103 (0.1, 1 and 10 μg mL^−1, respectively), (G, H and I) 104 (0.1, 1 and 10 μg mL^−1, respectively) or (A) were left untreated (control). Forty-eight h post-transfection, NF-κB activation was determined by firefly luciferase activity relative to Renilla luciferase activity. n.a. indicates not analyzed.
To examine the ability of the synthetic compounds to induce activation of NF-κB, HEK 293T cells were employed that were stably transfected with various immune receptors and transiently transfected with a plasmid containing the reporter gene pELAM-Luc (NF-κB-dependent firefly luciferase reporter vector) and a plasmid containing the control gene pRL-TK (Renilla luciferase control reporter vector) (FIG. 11). […] Although compound 104 is a weak activator of mouse TLR4, it could not induce the secretion of cytokines.
The day before transfection, HEK 293T wild type cells and HEK 293T cells stably transfected with human and murine TLR4/MD2/CD14 and human and murine TLR2 were plated in 96-well tissue culture plates (16,000 cells/well). The next day, cells were transiently transfected using PolyFect Transfection Reagent (Qiagen) with expression plasmids pELAM-Luc (NF-κB-dependent firefly luciferase reporter plasmid, 50 ng/well) (Chow et al., J. Biol. Chem., 1999, 274, 10689-10692) and pRL-TK (Renilla luciferase control reporter vector, 1 ng/well; Promega) as an internal control to normalize experimental variations. […] The luciferase activity was measured using the Dual-Luciferase Reporter Assay System (Promega) according to the manufacturer's instructions and a combination luminometer/fluorometer microplate reader (BMG Labtech). […]

Mono Mac 6 (MM6) cells = experiment: TNF-α induction in human monocytic Mono Mac 6 cells (ELISA); type: cell-based; settings: 5.5 h at 37° C., increasing concentrations
Experimental: MM6 cells were incubated for 5.5 h at 37° C. with increasing concentrations of E. coli LPS and synthetic compounds 103 and 104 as indicated. TNF-α protein in cell supernatants was measured using ELISA. (103 and 104 show background values and therefore overlap in the figure).
We have chemically synthesized the tetra-acylated lipid As 103 and 104 (FIG. 8) to study whether LPS derived from P. gingivalis can induce cellular activation in a TLR2- or TLR4-dependent manner. Furthermore, there are indications that LPS of P. gingivalis can antagonize cytokine production induced by enteric LPS and therefore these properties have also been studied. […]
Mono Mac 6 (MM6) cells, provided by Dr. H. W. L. Ziegler-Heitbrock (Institute for Inhalationbiology, Munich, Germany), were cultured in RPMI 1640 medium with L-glutamine (BioWhittaker) supplemented with penicillin (100 u mL^−1)/streptomycin (100 μg mL^−1; Mediatech, OPI supplement (1%; Sigma; containing oxaloacetate, pyruvate and bovine insulin) and fetal calf serum (FCS; 10%; HyClone). New batches of frozen cell stock were grown up every 2 months and growth morphology evaluated. Before each experiment, MM6 cells were incubated with calcitriol (10 ng mL^−1; Sigma) for 2 days to differentiate into macrophage like cells. […]

SMILES: CCCCCCCCCCCCCCCC(=O)O[C@H](CCCCCCCCCCCC(C)C)CC(=O)N[C@H]1[C@H](OC[C@H]2O[C@H](OP(=O)(O)O)[C@H](NC(=O)C[C@H](O)CCCCCCCCCCCC(C)C)[C@@H](OC(=O)C[C@H](O)CCCCCCCCCCCCC)[C@@H]2O)O[C@H](CO)[C@@H](O)[C@@H]1O [Compound 103, 6-O-{2-Deoxy-2-[(R)-3-hexadecanoyloxy-15-methyl-hexadecanoylamino]-β-D-glucopyranosyl}-3-O—[(R)-3-hydroxy-hexadecanoyl]-2-deoxy-2-[(R)-3-hydroxy-15-methyl-hexadecanoylamino]-α-D-glucopyranose 1-phosphate]
- cell viability, cellular exclusion of trypan blue (MM6 cells): did not affect cell viability
- NF-κB activation, human TLR2 (human TLR2): No activation of NF-κB
- TNF-α induction (in words) (Mono Mac 6 (MM6) cells): did not exhibit any activity

SMILES: CCCCCCCCCCCCCCCC(=O)O[C@H](CCCCCCCCCCCC(C)C)CC(=O)N[C@H]1[C@H](OC[C@H]2O[C@H](OP(=O)(O)O)[C@H](NC(=O)C[C@H](O)CCCCCCCCCCCC(C)C)[C@@H](O)[C@@H]2O)O[C@H](CO)[C@@H](O)[C@@H]1ONC(=O)C[C@H](O)CCCCCCCCCC(C)C [Compound 104, 6-O-{2-Deoxy-2-[(R)-3-hexadecanoyloxy-15-methyl-hexadecanoylamino]-3-O—[(R)-3-hydroxy-13-methyl-tetradecanoylamino]-β-D-glucopyranosyl}-2-deoxy-2-[(R)-3-hydroxy-15-methyl-hexadecanoylamino]-α-D-glucopyranose 1-phosphate]
- cell viability, cellular exclusion of trypan blue (MM6 cells): did not affect cell viability
- NF-κB activation, human TLR2 (human TLR2): No activation of NF-κB
- TNF-α induction (in words) (Mono Mac 6 (MM6) cells): did not exhibit any activity
